From the CheMixHub ionic liquid set

Assay: xn = mol fraction of the nth substance listed
Conditions: 100 kPa

CCOP(=O)([O-])OCC.CC[N+]1(C)CCCC1 + CCO
viscosity [mPa·s]
Conditions | 293.15 K | 298.15 K | 303.15 K | 308.15 K | 313.15 K | 318.15 K | 323.15 K | 328.15 K | 333.15 K | 338.15 K
x1 = 0.1003 | 3.85 | 3.4 | 2.99 | 2.66 | 2.35 | 2.07 | 1.83 | 1.67 | 1.5 | 1.44
x1 = 0.2001 | 8.78 | 7.84 | 6.91 | 6.2 | 5.58 | 5.06 | 4.67 | 4.27 | 3.94 | 3.62
x1 = 0.3004 | 18.4 | 15.67 | 13.37 | 11.53 | 9.97 | 8.78 | 7.86 | 7.13 | 6.55 | 6.04
x1 = 0.4001 | 39.8 | 29.8 | 24.8 | 20.6 | 17.7 | 15.24 | 13.14 | 11.6 | 10.25 | 9.19
x1 = 0.4997 | 66.9 | 52.7 | 42.3 | 34.5 | 28.5 | 23.8 | 20.3 | 17.4 | 14.99 | 13.17
x1 = 0.6002 | 116.3 | 88.7 | 68.7 | 54.9 | 43.9 | 35.2 | 29.3 | 24.6 | 20.7 | 17.9
x1 = 0.7001 | 180 | 133.7 | 102.4 | 78.8 | 62.3 | 49.5 | 39.7 | 32.8 | 27 | 22.6
x1 = 0.8011 | 265 | 193 | 143.7 | 109.7 | 83 | 66.1 | 51.9 | 42.1 | 34.3 | 28.3
x1 = 0.8985 | 334 | 237 | 173 | 130.1 | 98.4 | 75.6 | 59.5 | 47.3 | 37.8 | 30.9
x1 = 1 | 441 | 307 | 220 | 164 | 121.4 | 92.7 | 73 | 56.2 | 44.4 | 36.3

CC[n+]1ccccc1.N#C[N-]C#N + CCO
Conditions | viscosity [mPa·s]
288.15 K, x2 = 0 | 25.9
288.15 K, x2 = 0.1008 | 21.3
293.15 K, x2 = 0.1008 | 17.9
298.15 K, x2 = 0 | 18.9
298.15 K, x2 = 0.1974 | 12.4
298.15 K, x2 = 0.3008 | 10.3
298.15 K, x2 = 0.7999 | 2.54
303.15 K, x2 = 0.9011 | 1.69
308.15 K, x2 = 0.5058 | 5.17
313.15 K, x2 = 0.3994 | 5.99
313.15 K, x2 = 0.5058 | 4.69
313.15 K, x2 = 0.5994 | 3.74
313.15 K, x2 = 0.6996 | 2.92
318.15 K, x2 = 0.1008 | 8.97
318.15 K, x2 = 0.3994 | 5.44
